test system: HBV; experiment: HBV-DNA Antiviral Assay Using HepG2.2.15 Cells (extracellular HBV DNA by qPCR); assay type: cell-based; details: Hepatitis B virus, 168 h; HBV DNA inhibition, HepG2.2.15 cells, extracellular HBV DNA by qPCR on day 7; read-out: EC50
Description: The following assay procedure describes the HBV antiviral assay. This assay uses HepG2.2.15 cells, which have been transfected with HBV genome, and extracellular HBV DNA quantification as endpoint. Cell viability is assessed in parallel by measuring the intracellular ATP content using the CellTiter-Glo© reagent from Promega.
On day 0, HepG2.2.15 cells were seeded in 96-well plates at a density of 6.0×10^4 cells/well (0.1 mL/well). The cells were incubated at 37° C. and 5% CO2.
On day 1, the test articles were diluted and added to cell culture wells (8 concentrations, 4-fold dilution, in duplicate). GLS4, Tenofovir and Sorafenib were used as reference compounds. 100 μL of culture medium containing the compounds was added to the plate, and the final total volume per well was 200 μL. The final concentration of DMSO in the culture medium was 0.5%. The plate map of compound treatment is shown below. The cells were cultured at 37° C. and 5% CO2 for 3 days.
On day 4, the plates were refreshed with culture media with compounds.
On day 7, cell viability was assessed using the CellTiter-Glo, and the cell culture supernatants were collected for determination of HBV DNA by qPCR.
Extracellular DNA was isolated with QIAamp 96 DNA Blood Kit per the manufacturer's manual. HBV DNA was then quantified by qPCR with HBV specific primers and probes as specified in Table 1 using the FastStart Universal MasterMix from Roche on an ABI-7900HT. The PCR cycle program consisted of 95° C. for 10 min, followed by 40 cycles at 95° C. for 15 sec and 60° C. for 1 min.
A DNA standard was prepared by dilution of the pAAV2 HBV1.3 plasmid with concentrations ranging from 10 to 1×10^7 copies/μL and used to generate a standard curve by plotting Ct value vs. the concentration of the HBV plasmid DNA standard. The quantity of HBV DNA in each sample was determined by interpolating from the standard curve.
Cell viability was calculated as follows: % Cell viability=(luminescence value of test sample−average luminescence value of blank)/(average luminescence value of 0.5% DMSO control−average luminescence of blank)×100%. HBV DNA inhibition was calculated as follows: 100-(HBV DNA copy number of test sample−HBV DNA copy number of ETV)/HBV DNA copy number of 0.5% DMSO control−HBV DNA copy number of ETV)×100%. The CC50, EC50 and EC90 values were determined by dose-response curves fitted by GraphPad Prism using “log (agonist) vs. response—Variable slope”.

| SMILES | EC50 |
| --- | --- |
| COc1ccc(CN2CCn3c(c4n(c3=O)CCN(C(=O)c3ccc(Br)c(Cl)c3)C4)C2=O)cc1 [Example 19, 12-(4-bromo-3-chloro-benzoyl)-4-[(4-methoxyphenyl)methyl]-4,7,9,12-tetrazatricyclo[7.4.0.0^2,7]tridec-1-ene-3,8-dione] | > 5000 nM |
| COc1ccc(CN2CCCn3c(c4n(c3=O)CCN(C(=O)Nc3ccc(F)c(Cl)c3)C4)C2=O)cc1 [Example 4, N-(3-chloro-4-fluorophenyl)-11-(4-methoxybenzyl)-6,12-dioxo-1,3,4,8,9,10,11,12-octahydro-2H,6H-pyrazino[1′,2′:3,4]imidazo[1,5-a][1,4]diazepine-2-carboxamide] | < 100 nM |
| CC1Cn2c(c(C(=O)NCc3ccccc3-c3ncccn3)n(-c3ccc(-n4cccn4)cc3)c2=O)CN1C(=O)c1ccc(Br)c(Cl)c1 (racemic) [Example 468, rac-(6R)-7-(4-bromo-3-chloro-benzoyl)-6-methyl-3-oxo-2-(4-pyrazol-1-ylphenyl)-N-[(2-pyrimidin-2-ylphenyl)methyl]-6,8-dihydro-5H-imidazo[1,5-a]pyrazine-1-carboxamide] | 100 to 500 nM |
| COc1ccc(CN2CCCn3c(c4n(c3=O)CCN(C(=O)c3ccc(Br)c(Cl)c3)C4)C2=O)cc1 [Example 9, 2-(4-bromo-3-chlorobenzoyl)-11-(4-methoxybenzyl)-1,2,3,4,8,9,10,11-octahydro-6H,12H-pyrazino[1′,2′:3,4]imidazo[1,5-a][1,4]diazepine-6,12-dione] | 100 to 500 nM |

— patent US11591341B2 (ALIGOS THERAPEUTICS, INC., priority 2019, dated 2023)
